The text below walks through data of patent US12171763B2, “Methods and compositions comprising a KRASG12C inhibitor and a PD-L1 binding antagonist for treating lung cancer” (Genentech, Inc., priority 2020, dated 2024).

Data set [1] concerns KRAS^G12C-positive over KRAS^G12C-negative cancer cell lines. The experiment in a line: Growth inhibition of KRAS G12C-positive versus KRAS G12C-negative cancer cell lines. It counts as cell-based.
The test system of data set [2] is KRAS^G12C-positive cancer cell lines. Description: Mechanism of action studies in KRAS G12C-positive cancer cell lines. It counts as cell-based.
Data set [3] can be described thus: Risks associated with administration of Compound 1. To be noted: in vivo.
For data set [4], the system named is KRAS^G12C-positive lung tumors. The experiment in a line: Nonclinical xenograft models of KRAS G12C-positive lung tumors. It counts as in vivo.
The subject of data set [5] is CT26.KRAS12C-Clone #12:B2G9 Syngeneic Colorectal (CRC) Tumors. The experiment in a line: Anti-tumor efficacy in CT26.KRAS12C-Clone #12:B2G9 syngeneic colorectal (CRC) tumor model. In kind it is in vivo, Balb/c mice. The procedure: The combination of the adipate salt of Compound 1 with anti-PD-L1 monoclonal antibody (mAb) was assessed in the CRISPR-engineered CT26.KRAS12C-Clone #12:B2G9 mouse colorectal (CRC) syngeneic tumor model.
Test Agents. The adipate salt of Compound 1 was in a solution at a concentration of 7.5 mg/mL in 0.5% (w/v) methylcellulose. Anti-PD-L1 mAbs (Mu IgG1 anti-PD-L1 (6E11); hereafter referred to as anti-PD-L1) was in a solution in Histidine Buffer #8 ([…] Histidine Acetate, […] Sucrose, 0.02% Tween 20™, pH 5.5). The oral-dosed vehicle control was 0.5% (w/v) methylcellulose. Test agents were stored in a refrigerator set to maintain a temperature range of 4° C.-7° C. All treatments and vehicle control dosing solutions were prepared once a week for three weeks.
Female Balb/c mice that were 9-10 weeks old were obtained from Charles River Laboratory (Hollister, CA) weighing an average of 22 g. Only animals that appeared to be healthy and that were free of obvious abnormalities were used for the study. Mus musculus colon carcinoma CT26 cells were obtained from the American Type Culture Collection (Rockville, MD). CT26.KRAS12C-Clone #12:B2G9 is derived from CRISPR knock-in of G12C in CT26 cells. Cells were cultured in vitro, harvested in log-phase growth, and resuspended in Hank's Balanced Salt Solution (HBSS) containing Matrigel (BD Biosciences; San Jose, CA) at a 1:1 ratio. The cells were then implanted subcutaneously in the right lateral thorax of 70 Balb/c mice. Each mouse was injected with 0.1×10^6 cells in a volume of 100 μL. Tumors were monitored until they reached a mean tumor volume of 159-228 mm^3. Mice were distributed into six groups based on tumor volumes with n=8 mice per group. The mean tumor volume across all six groups was 198 mm^3 at the initiation of dosing.
[…] The MC vehicle and adipate salt of Compound 1 were administered on QD orally (PO) by gavage for 21 days in a volume of 100 μL. The isotope control mAbs and anti-PD-L1 mAbs were administered intravenously (IV) at 10 mg/kg for the first dose, and then dosed intraperitoneally (IP) at 5 mg/kg for subsequent doses on a twice weekly (BIW) schedule.
Tumor sizes and mouse body weights were recorded twice weekly over the course of the study. […]
Dose Preparation and Tumor and Body Weight Measurement. All concentrations were calculated based on a mean body weight of 25 g for the […] mouse strain used in this study. Tumor volumes were measured in two dimensions (length and width) using Ultra Cal-IV calipers (model 54-10-111; Fred V. Fowler Co.; Newton, MA) and analyzed using Excel, version 14.2.5 (Microsoft Corporation; Redmond WA). The tumor volume was calculated with the following formula: Tumor size(mm^3)=(longer measurement×shorter measurement^2)×0.5 […]

Data set [6] deals with NSCLC. To be noted: patients in clinical studies, cited from earlier work.

The structures appear in SMILES notation. Counter-ions that a name gives are not always drawn.

With `C=CC(=O)N1CCN(c2nc(OC[C@@H]3CCCN3C)nc3c(F)c(-c4nc(N)cc(C)c4C(F)(F)F)c(Cl)cc23)[C@@H](C)C1` (atropisomer, axis not shown) [Compound 1, 1-((S)-4-((R)-7-(6-amino-4-methyl-3-(trifluoromethyl)pyridin-2-yl)-6-chloro-8-fluoro-2-(((S)-1-methylpyrrolidin-2-yl)methoxy)quinazolin-4-yl)-3-methylpiperazin-1-yl)prop-2-en-1-one], the “selectivity in growth inhibition” value in data set [1] is reported as “over 20,000 fold”. Further, in data set [2], the apoptosis induction result is listed as “apoptosis induction is observed”; the “downstream MAPK pathway components (pERK, pS6) and KRAS target genes (DUSP6, SPRY4)” value was “inhibited”. The “risks associated with administration” value in data set [3] was “diarrhea, nausea, vomiting, oral mucosal irritation, minimal to mild transaminase elevation, and phototoxicity”. The “single-agent activity on tumor growth” value in data set [4] is given as “inhibits tumor growth”.
Turning to `C=CC(=O)N1CCN(c2nc(OC[C@@H]3CCCN3C)nc3c(F)c(-c4nc(N)cc(C)c4C(F)(F)F)c(Cl)cc23)[C@@H](C)C1` (atropisomer, axis not shown) [adipate salt Compound 1, 1-((S)-4-((R)-7-(6-amino-4-methyl-3-(trifluoromethyl)pyridin-2-yl)-6-chloro-8-fluoro-2-(((S)-1-methylpyrrolidin-2-yl)methoxy)quinazolin-4-yl)-3-methylpiperazin-1-yl)prop-2-en-1-one], the “partial responses (PRs)” value in data set [5] (fraction of mice, Compound 1 adipate 30 mg/kg PO QD, anti-PD-L1 10/5 mg/kg BIW) is reported as “⅜”. Moreover, the “CR (complete response)” value in data set [5] (number of mice of 8, CR = 100% decrease in tumor volume, Compound 1 adipate 30 mg/kg, anti-PD-L1 10/5 mg/kg) is reported as 0. In addition, the “PR (partial response)” value in data set [5] (number of mice of 8, PR = >50% decrease from initial tumor volume, Compound 1 adipate 30 mg/kg, anti-PD-L1 10/5 mg/kg) came to 3. For the same compound, the “% TGI (estimated)” value in data set [5] (tumor growth inhibition based on AUC, relative to vehicle, Compound 1 adipate 30 mg/kg PO QD, anti-PD-L1 10 mg/kg IV first dose then 5 mg/kg IP BIW) is 123%.
For `C=CC(=O)N1CCN(c2nc(=O)n(-c3c(C)ccnc3C(C)C)c3nc(-c4c(O)cccc4F)c(F)cc23)[C@@H](C)C1` [AMG 510, sotorasib], the treatment-related adverse events in data set [6] (overall) is 56.6 % of patients. In data set [6], the “Grade 3 events occurring in more than one patient” value was “ALT increase, diarrhea, anemia, AST increase, and alkaline phosphatase increase”; the “treatment-related Grade 3 or 4 event” value was 11.6 % of patients; the “treatment-related serious adverse event” value is listed as 1.6 % of patients.
